From US11655235B2, “Pyrrolidine and piperidine compounds” (YUHAN CORPORATION, priority 2019, dated 2023)
Like-named read-outs stand apart in the source and are kept apart here.

Columns and labels:
Type in all cases: biochemical
Recombinant human FAP [1] = target: T1, Recombinant human FAP (Homo sapiens, UniProt Q12884); assay: FAP inhibition, fluorogenic substrate Z-Gly-Pro-AMC
T1 construct: purchased R&D systems
T1 sequence (Q12884 1-760): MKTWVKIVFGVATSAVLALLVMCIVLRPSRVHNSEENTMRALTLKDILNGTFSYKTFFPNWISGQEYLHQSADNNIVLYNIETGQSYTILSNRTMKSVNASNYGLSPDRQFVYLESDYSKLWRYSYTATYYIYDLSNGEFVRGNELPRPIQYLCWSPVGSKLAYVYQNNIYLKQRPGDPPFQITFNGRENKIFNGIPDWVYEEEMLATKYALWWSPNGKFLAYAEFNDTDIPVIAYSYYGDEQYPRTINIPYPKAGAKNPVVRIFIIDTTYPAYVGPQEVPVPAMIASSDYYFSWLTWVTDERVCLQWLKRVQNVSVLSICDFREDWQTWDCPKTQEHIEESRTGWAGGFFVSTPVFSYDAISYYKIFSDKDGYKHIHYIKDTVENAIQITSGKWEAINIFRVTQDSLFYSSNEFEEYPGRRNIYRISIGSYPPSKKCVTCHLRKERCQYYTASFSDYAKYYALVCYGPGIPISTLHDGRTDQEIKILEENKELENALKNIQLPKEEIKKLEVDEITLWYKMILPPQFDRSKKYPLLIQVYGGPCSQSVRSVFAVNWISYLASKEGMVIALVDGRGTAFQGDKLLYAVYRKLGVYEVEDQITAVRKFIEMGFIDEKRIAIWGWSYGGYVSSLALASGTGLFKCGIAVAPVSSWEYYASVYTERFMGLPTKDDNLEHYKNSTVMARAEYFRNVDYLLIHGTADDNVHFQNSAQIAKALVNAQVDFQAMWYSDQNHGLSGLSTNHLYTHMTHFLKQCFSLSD
In short: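 Recombinant human FAP, 10 ng per reaction, in 50 mM Tris pH 7.5 with 1 M NaCl and 1 mg/ml BSA at 25° C; substrate Z-Gly-Pro-AMC, ≤0.1% DMSO. AMC fluorescence read at ex 380/em 460 nm; % signal-rate decrease vs no-inhibitor control, 8-point curves fitted to a four-parameter logistic for IC50.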

DPP4 = DPP4 (Homo sapiens, UniProt P27487); assay: DPP4 inhibition, fluorogenic substrate H-Gly-Pro-AMC; parameters: purchased R&D Systems
recombinant human DPP7 = target: T2, recombinant human DPP7 (Homo sapiens, UniProt Q9UHL4); assay: DPP7 inhibition, fluorogenic substrate Lys-Pro-AMC
T2 construct: purchased R&D Systems
Procedure: (§1) The compounds according to the present technology were evaluated in terms of the inhibitory effect on the activity of dipeptidyl peptidases including FAP by using a substrate producing fluorescent substances upon enzymatic decomposition. The test was conducted at 25° C. to get a final reaction volume of 100 μL in a 96 black well plate. […] Briefly, the test compounds were dissolved in dimethyl sulfoxide (DMSO) at a concentration of 20 mM and then subjected to serial dilution, thereby creating an 8 point curve. As for the control group, a 6 point curve created by serial dilution of Talabostat in the same buffer solution was used. Fluorescence intensity was measured using a microplate reader (Flexstation3, Molecular Devices) under the wavelength condition exciting at 380 nm and reading the emission at 460 nm. The inhibitory effect of the test compounds was measured as a decrease (%) in the signal rate as compared to the control group without any inhibitor. Data was fixed to a logistic model with four variables and IC50 value was calculated using GraphPad Prism program. As for recombinant human DPP4 (R&D Systems), 25 mM tris (pH 8.0) buffer as a buffer solution and H-Gly-Pro-AMC (Bachem) as a substrate were used. As for recombinant human DPP7 (R&D Systems), 25 mM MES (pH 6.0) buffer as a buffer solution and Lys-Pro-AMC (Bachem) as a substrate were used. As for recombinant human DPP8 (PBS Bioscience), as a buffer solution, a 10 mM tris (pH 7.4) buffer comprising 10 mM of magnesium chloride and 0.05% of Tween 20, and Z-Ala-Pro-AMC (BPS Bioscience) as a substrate were used. As for recombinant human DPP9 (R&D Systems), a 25 mM tris (pH 8.0) buffer as a buffer solution and H-Gly-Pro-AMC (Bachem) as a substrate were used. As for recombinant human PREP (R&D System), as a buffer solution, a 25 mM tris (pH 7.5) buffer comprising 250 mM sodium chloride and 2.5 mM DTT (Dithiolthreitol), and Z-Gly-Pro-AMC (Bachem) as a substrate were used. The evaluation was made by using 10 ng of DPP4, PDD7, and PREP, 20 ng of DPP8, and 50 ng of DPP9 based on the final reaction. In the evaluation of DPP4, the test compounds were subjected to serial dilution in a buffer under the condition containing up to 0.1% of DMSO. In the evaluation of DPP7, DPP8, DPP9, and PREP, the test compounds were subjected to serial dilution in each buffer under the condition containing up to 0.5% of DMSO.

recombinant human DPP9 = target: T3, recombinant human DPP9 (Homo sapiens, UniProt Q86TI2); assay: DPP9 inhibition, fluorogenic substrate H-Gly-Pro-AMC; settings: at 1 μM
T3 construct: purchased R&D Systems
Procedure: as §1

Recombinant human FAP [2] = target: T1, Recombinant human FAP; assay: FAP FRET assay, FGF21-sequence FRET peptide substrate; settings: FRET peptide with human FGF21 sequence, 6 μM, 37° C.
Procedure: The compounds according to the present technology were evaluated in terms of the inhibitory effect on the activity of dipeptidyl peptidases including FAP by using a substrate producing fluorescent substances upon enzymatic decomposition. The test was conducted at 25° C. to get a final reaction volume of 100 μL in a 96 black well plate. […] Briefly, the test compounds were dissolved in dimethyl sulfoxide (DMSO) at a concentration of 20 mM and then subjected to serial dilution, thereby creating an 8 point curve. As for the control group, a 6 point curve created by serial dilution of Talabostat in the same buffer solution was used. Fluorescence intensity was measured using a microplate reader (Flexstation3, Molecular Devices) under the wavelength condition exciting at 380 nm and reading the emission at 460 nm. The inhibitory effect of the test compounds was measured as a decrease (%) in the signal rate as compared to the control group without any inhibitor. Data was fixed to a logistic model with four variables and IC50 value was calculated using GraphPad Prism program. For the FAP FRET assay, recombinant human FAP (R&D systems) was diluted with 50 mM HEPES (pH 7.2) buffer comprising 150 mM of sodium chloride, 0.1 mg/ml of bovine serum albumin (BSA) and 1 mM EDTA to be 10 ng per final reaction. The test compounds were subjected to serial dilution in a buffer under the condition containing up to 0.1% of DMSO. FRET peptides containing human FGF21 sequence ([…]) conjugated with HyLite Fluor 488 and dark quencher QXL 520 (Anaspec) was used as a substrate. By dissolving in DMSO and then diluting in the same buffer, the substrate was added to be 6 μM per final reaction. All reactions of FRET assay was conducted at 37° C.

[3] = 25° C., Z-Gly-Pro-AMC substrate
[4] = 25° C., H-Gly-Pro-AMC substrate
[5] = recombinant human FAP, substrate Z-Gly-Pro-AMC

DPP4, sequence (P27487 whole entry): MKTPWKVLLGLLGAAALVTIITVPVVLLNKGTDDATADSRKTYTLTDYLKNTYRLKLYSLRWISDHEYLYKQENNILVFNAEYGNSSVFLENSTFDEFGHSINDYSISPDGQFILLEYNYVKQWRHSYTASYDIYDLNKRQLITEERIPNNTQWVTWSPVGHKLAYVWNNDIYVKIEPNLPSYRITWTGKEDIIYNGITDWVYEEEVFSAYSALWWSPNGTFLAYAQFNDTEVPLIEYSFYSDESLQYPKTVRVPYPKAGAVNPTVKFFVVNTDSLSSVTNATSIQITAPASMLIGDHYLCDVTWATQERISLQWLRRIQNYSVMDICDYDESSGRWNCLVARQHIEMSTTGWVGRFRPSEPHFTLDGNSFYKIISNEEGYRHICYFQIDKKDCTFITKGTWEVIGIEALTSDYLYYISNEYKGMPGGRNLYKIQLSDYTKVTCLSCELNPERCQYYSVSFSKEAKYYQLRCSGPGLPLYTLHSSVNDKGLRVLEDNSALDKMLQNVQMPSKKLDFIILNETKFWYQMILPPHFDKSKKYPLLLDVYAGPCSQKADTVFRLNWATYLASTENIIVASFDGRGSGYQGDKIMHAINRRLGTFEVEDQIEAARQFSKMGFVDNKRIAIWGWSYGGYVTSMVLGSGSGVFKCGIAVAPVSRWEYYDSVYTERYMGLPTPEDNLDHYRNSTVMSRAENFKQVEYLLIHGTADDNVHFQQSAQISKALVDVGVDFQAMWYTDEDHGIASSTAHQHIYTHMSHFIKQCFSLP
T3 sequence (Q86TI2 whole entry): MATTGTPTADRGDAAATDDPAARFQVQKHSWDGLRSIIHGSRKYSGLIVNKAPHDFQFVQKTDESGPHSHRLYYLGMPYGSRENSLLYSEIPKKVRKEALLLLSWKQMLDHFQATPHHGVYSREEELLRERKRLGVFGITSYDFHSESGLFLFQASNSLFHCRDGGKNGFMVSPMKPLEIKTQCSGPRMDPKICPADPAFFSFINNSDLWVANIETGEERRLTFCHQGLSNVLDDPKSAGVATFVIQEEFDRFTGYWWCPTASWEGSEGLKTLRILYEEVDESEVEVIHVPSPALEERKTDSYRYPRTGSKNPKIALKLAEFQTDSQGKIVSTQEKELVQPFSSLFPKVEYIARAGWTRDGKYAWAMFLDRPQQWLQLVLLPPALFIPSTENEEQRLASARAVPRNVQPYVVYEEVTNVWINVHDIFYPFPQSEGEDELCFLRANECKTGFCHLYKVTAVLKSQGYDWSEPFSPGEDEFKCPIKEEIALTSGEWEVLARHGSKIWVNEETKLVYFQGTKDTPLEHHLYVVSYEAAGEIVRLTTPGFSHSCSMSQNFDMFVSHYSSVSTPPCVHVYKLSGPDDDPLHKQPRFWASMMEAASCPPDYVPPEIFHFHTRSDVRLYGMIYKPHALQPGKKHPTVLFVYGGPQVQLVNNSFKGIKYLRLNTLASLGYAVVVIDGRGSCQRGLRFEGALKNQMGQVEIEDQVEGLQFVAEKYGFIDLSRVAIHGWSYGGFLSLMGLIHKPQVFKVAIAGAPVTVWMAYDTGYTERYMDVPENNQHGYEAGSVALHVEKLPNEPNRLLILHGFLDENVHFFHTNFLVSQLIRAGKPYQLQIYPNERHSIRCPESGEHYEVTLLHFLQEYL

| Compound | IC50 (Recombinant human FAP [1]; [3]) [nM] | IC50 (DPP4; [4]) [nM] | IC50 (recombinant human DPP7) [nM] | IC50 (Recombinant human FAP [2]) [nM] | other results |
| --- | --- | --- | --- | --- | --- |
| N#C[C@@H]1CCCN1C(=O)CN1CC[C@H](Nc2ccnc3ccccc23)C1 [Example 5, (S)-1-(2-((S)-3-(quinolin-4-ylamino)pyrrolidin-1-yl)acetyl)pyrrolidine-2-carbonitrile] | 2.6 | > 1000 | 294 | – | – |
| N#C[C@@H]1CCCN1C(=O)CN1CC[C@H](Nc2cncc3ccoc23)C1 [Example 23, (S)-1-(2-((S)-3-(furo[3,2-c]pyridin-7-ylamino)pyrrolidin-1-yl)acetyl)pyrrolidine-2-carbonitrile] | 3.08 | > 1000 | 951 | – | – |
| COc1ccc2occ(C(=O)N[C@H]3CCN(CC(=O)N4CCC[C@H]4C#N)C3)c2c1 [Example 46, N—((S)-1-(2-((S)-2-cyanopyrrolidin-1-yl)-2-oxoethyl)pyrrolidin-3-yl)-5-methoxybenzofuran-3-carboxamide] | 7.7 | – | 2200 | – | inhibition at 1 µM (DPP4; read-out: hDPP4 inhibition % at 1 μM): 1.4% |
| N#C[C@@H]1CCCN1C(=O)CN1CC[C@H](Oc2ccnc3ccccc23)C1 [Example 61, (S)-1-(2-((S)-3-(quinolin-4-yloxy)pyrrolidin-1-yl)acetyl)pyrrolidine-2-carbonitrile] | 21.5 | > 1000 | 1150 | – | – |
| N#C[C@@H]1CCCN1C(=O)CN1CC[C@H](Oc2cccc3ncccc23)C1 [Example 66, (S)-1-(2-((S)-3-(quinolin-5-yloxy)pyrrolidin-1-yl)acetyl)pyrrolidine-2-carbonitrile] | 5.48 | > 1000 | 6390 | – | – |
| N#C[C@@H]1CCCN1C(=O)CN1CC[C@H](Oc2ccnc3c(C(F)(F)F)cccc23)C1 [Example 95, (S)-1-(2-((S)-3-((8-(trifluoromethyl)quinolin-4-yl)oxy)pyrrolidin-1-yl)acetyl)pyrrolidine-2-carbonitrile] | 3.3 | > 1000 | 4740 | – | DPP9 inhibition % at 1 μM (recombinant human DPP9): No inhibition** |
| N#C[C@@H]1C[C@H](F)CN1C(=O)CN1CC[C@H](Nc2ccc3cccnc3c2)C1 [Example 251, (2S,4S)-4-fluoro-1-[2-[(3S)-3-(7-quinolylamino)pyrrolidin-1-yl]acetyl]pyrrolidine-2-carbonitrile] | – | – | – | – | IC50 (Recombinant human FAP [1]; [5]): 3.1 nM; IC50 (DPP4; recombinant human DPP4): 2310 nM; IC50 (recombinant human DPP7; recombinant human DPP7): 199 nM |
| CN(c1cc2ccccc2cn1)C1CCN(CC(=O)N2CCC[C@H]2C#N)CC1 [Example 321, (2S)-1-[2-[4-[3-isoquinolyl(methyl)amino]-1-piperidyl]acetyl]pyrrolidine-2-carbonitrile] | – | – | – | – | IC50 (Recombinant human FAP [1]; [5]): 8.8 nM; IC50 (DPP4; recombinant human DPP4): > 10000 nM; IC50 (recombinant human DPP7; recombinant human DPP7): 10500 nM |

Continued, in another order:

| IC50 (Recombinant human FAP [1]; [3]) [nM] | IC50 (DPP4; [4]) [nM] | IC50 (recombinant human DPP7) [nM] | IC50 (Recombinant human FAP [2]) [nM] | Compound | other results |
| --- | --- | --- | --- | --- | --- |
| 2.2 | > 1000 | 500 | – | N#C[C@@H]1CCCN1C(=O)CN1CCC(Nc2cccc3ncccc23)CC1 [Example 110, (S)-1-(2-(4-(quinolin-5-ylamino)piperidin-1-yl)acetyl)pyrrolidine-2-carbonitrile] | – |
| 0.78 | > 10000 | 5900 | – | COc1ccc2nccc(OC3CCN(CC(=O)N4C[C@@H](F)C[C@H]4C#N)CC3)c2c1 [Example 128, (2S,4S)-4-fluoro-1-(2-(4-((6-methoxyquinolin-4-yl)oxy)piperidin-1-yl)acetyl)pyrrolidine-2-carbonitrile] | – |
| 3.4 | – | 3120 | – | COc1ccc2cc(N(C)[C@H]3CCN(CC(=O)N4CCC[C@H]4C#N)C3)cnc2c1 [Example 153, (S)-1-(2-((S)-3-((7-methoxyquinolin-3-yl)(methyl)amino)pyrrolidin-1-yl)acetyl)pyrrolidine-2-carbonitrile] | – |
| – | – | – | 32.8 | N#C[C@@H]1CCCN1C(=O)CN1CC[C@@H](Nc2ccc3nc(Cl)ccc3c2)C1 [Example 206, (2S)-1-[2-[(3R)-3-[(2-chloro-6-quinolyl)amino]pyrrolidin-1-yl]acetyl]pyrrolidine-2-carbonitrile] | – |
| – | – | – | 17.9 | N#C[C@@H]1C[C@H](F)CN1C(=O)CN1CC[C@@H](Nc2ccc3nc(Cl)ccc3c2)C1 [Example 207, (2S,4S)-4-fluoro-1-[2-[(3R)-3-[(2-chloro-6-quinolyl)amino]pyrrolidin-1-yl]acetyl]pyrrolidine-2-carbonitrile] | – |
| – | – | – | 74.9 | N#C[C@@H]1C[C@H](F)CN1C(=O)CN1CCC(Nc2cccc3nc[nH]c23)CC1 [Example 384, (2S,4S)-1-[2-[4-(3H-benzimidazol-4-ylamino)-1-piperidyl]acetyl]-4-fluoro-pyrrolidine-2-carbonitrile] | – |
| – | – | – | 77.4 | N#C[C@@H]1C[C@H](F)CN1C(=O)CN1CCC(Nc2cc(Cl)nc(N3CCOCC3)c2)CC1 [Example 385, (2S,4S)-1-[2-[4-[(2-chloro-6-morpholino-4-pyridyl)amino]-1-piperidyl]acetyl]-4-fluoro-pyrrolidine-2-carbonitrile] | – |
| – | – | – | 19.8 | N#C[C@@H]1C[C@H](F)CN1C(=O)CN1CCC(Nc2cccc3ncc(C(F)(F)F)cc23)CC1 [Example 386, (2S,4S)-4-fluoro-1-[2-[4-[[3-(trifluoromethyl)-5-quinolyl]amino]-1-piperidyl]acetyl]pyrrolidine-2-carbonitrile] | – |
| – | – | – | 32.4 | N#C[C@@H]1CCCN1C(=O)CN1CCC(Nc2cccc3ncc(C(F)(F)F)cc23)CC1 [Example 387, (2S)-1-[2-[4-[[3-(trifluoromethyl)-5-quinolyl]amino]-1-piperidyl]acetyl]pyrrolidine-2-carbonitrile] | – |
